Measurements as given in patent US8946438B2, “Benzamides, production thereof, and use thereof as medicaments” (Boehringer Ingelheim International GmbH, priority 2008, dated 2015).

Target: p38 MAP-kinase (Homo sapiens, UniProt Q16539)
Assay: Enzymatic assay: inhibition of p38 MAP-kinase (phosphorylation of GST-tagged ATF2, chemoluminescence bead readout)
Type: biochemical
Conditions: inhibitor 1 μM; activated p38 MAP-kinase 1 nM; 4 h preincubation; ATP 100 μM; ATF2 10 nM; read-out: % inhibitory effect at 1 μM
Outline: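 Activated human p38 MAP-kinase (1 nM) preincubated 4 h at ambient temperature with compound at 1 μM in HEPES pH 7, MgCl2, DTT, Tween20. Then reacted 1 h with GST-ATF2 (10 nM) and ATP (100 μM). Phospho-ATF2 read by bead chemoluminescence at 520-620 nm, given as % inhibition at 1 μM versus kinase-free background.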

Chain of p38 MAP-kinase (Q16539 whole entry): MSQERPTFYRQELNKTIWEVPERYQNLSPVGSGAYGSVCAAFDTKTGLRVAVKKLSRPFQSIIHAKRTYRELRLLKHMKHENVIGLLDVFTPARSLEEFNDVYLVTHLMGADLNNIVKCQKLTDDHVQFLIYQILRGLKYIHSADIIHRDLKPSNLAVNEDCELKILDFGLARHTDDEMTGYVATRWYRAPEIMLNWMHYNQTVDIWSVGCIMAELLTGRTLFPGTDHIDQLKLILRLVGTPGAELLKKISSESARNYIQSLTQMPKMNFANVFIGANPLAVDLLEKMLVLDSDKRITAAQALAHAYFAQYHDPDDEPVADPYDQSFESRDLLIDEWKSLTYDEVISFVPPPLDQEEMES

Row | SMILES | inhibition at 1 µM [%]
1 | COc1c(NC(=O)c2ccc(C)c(Oc3ccnc(CC4CCNCC4)c3)c2)cc(C(C)(C)C)cc1NS(=O)(=O)CC(C)C [5(46), N-[5-tert-butyl-2-methoxy-3-(2-methyl-propane-1-sulphonylamino)-phenyl]-4-methyl-3-(2-piperidin-4-ylmethyl-pyridin-4-yloxy)-benzamide] | 99.6
2 | COc1c(NC(=O)c2ccc(C)c(Oc3ccnc(CNCCN(C)C)n3)c2)cc(C(C)(C)C)cc1NS(C)(=O)=O [8(25), N-(5-tert-butyl-3-methanesulphonylamino-2-methoxy-phenyl)-3-{2-[(2-dimethylamino-ethylamino)-methyl]-pyrimidin-4-yloxy}-4-methyl-benzamide] | 98.6
3 | COc1c(NC(=O)c2ccc(Cl)c(Oc3cc(CC4CCNCC4)ncn3)c2)cc(C(C)(C)C)cc1NS(C)(=O)=O [5(33), N-(5-tert-butyl-3-methanesulphonylamino-2-methoxy-phenyl)-4-chloro-3-(6-piperidin-4-ylmethyl-pyrimidin-4-yloxy)-benzamide] | 99.2
4 | COc1c(NC(=O)c2ccc(C)c(Oc3cc(CN4CCOCC4)ncn3)c2)cc(C(C)(C)C)cc1NS(C)(=O)=O [Example 8, N-(5-tert-butyl-3-methanesulphonylamino-2-methoxy-phenyl)-4-methyl-3-(6-morpholin-4-ylmethyl-pyrimidin-4-yloxy)-benzamide] | 95
5 | COc1c(NC(=O)c2ccc(C)c(Oc3ccnc(CNC4CCCN(C)C4)n3)c2)cc(C(C)(C)C)cc1NS(C)(=O)=O (stereo not drawn) [8(18), N-(5-tert-butyl-3-methanesulphonylamino-2-methoxy-phenyl)-4-methyl-3-{2-[(1-methyl-piperidin-3-ylamino)-methyl]-pyrimidin-4-yloxy}-benzamide] | 98.6
6 | COc1c(NC(=O)c2ccc(Cl)c(Oc3ccnc(CNCCN(C)C)n3)c2)cc(C(C)(C)C)cc1NS(C)(=O)=O [8(37), N-(5-tert-butyl-3-methanesulphonylamino-2-methoxy-phenyl)-4-chloro-3-{2-[(2-dimethylamino-ethylamino)-methyl]-pyrimidin-4-yloxy}-benzamide] | 91.3
7 | COc1c(NC(=O)c2ccc(C)c(Oc3cc(CC4CCCN(C)CC4)ncn3)c2)cc(C(C)(C)C)cc1NS(C)(=O)=O (stereo not drawn) [12(7), N-(5-tert-butyl-3-methanesulphonylamino-2-methoxy-phenyl)-4-methyl-3-[6-(1-methyl-azepan-4-ylmethyl)-pyrimidin-4-yloxy]-benzamide] | 99.8
8 | COc1c(NC(=O)c2ccc(C)c(Oc3cc(C(=O)N4CCN(C)CC4)ncn3)c2)cc(C(C)(C)C)cc1NS(C)(=O)=O [7(2), N-(5-tert-butyl-3-methanesulphonylamino-2-methoxy-phenyl)-4-methyl-3-[6-(4-methyl-piperazine-1-carbonyl)-pyrimidin-4-yloxy]-benzamide] | 96.3
9 | COc1c(NC(=O)c2ccc(Cl)c(Oc3ccnc(CN4CCCN(C)CC4)c3)c2)cc(C(C)(C)C)cc1NS(C)(=O)=O [8(39), N-(5-tert-butyl-3-methanesulphonylamino-2-methoxy-phenyl)-4-chloro-3-[2-(4-methyl-[1,4]diazepan-1-ylmethyl)-pyridin-4-yloxy]-benzamide] | 98.9
10 | COc1c(NC(=O)c2ccc(C)c(Oc3cc(N4CC[C@@H](N(C)C)C4)ncn3)c2)cc(C(C)(C)C)cc1NS(C)(=O)=O [4(12), N-(5-tert-butyl-3-methanesulphonylamino-2-methoxy-phenyl)-3-[6-((R)-3-dimethylamino-pyrrolidin-1-yl)-pyrimidin-4-yloxy]-4-methyl-benzamide] | 95.8
11 | COc1c(NC(=O)c2ccc(C)c(Oc3cc[n+]([O-])cc3)c2)cc(C(C)(C)C)cc1NS(C)(=O)=O [Example 1, N-(5-tert-butyl-3-methanesulphonylamino-2-methoxy-phenyl)-4-methyl-3-(1-oxy-pyridin-4-yloxy)-benzamide] | 90.8
12 | COc1c(NC(=O)c2ccc(C)c(Oc3ccnc(CN4CCCN(C)CC4)c3)c2)cc(C(C)(C)C)cc1NS(C)(=O)=O [8(20), N-(5-tert-butyl-3-methanesulphonylamino-2-methoxy-phenyl)-4-methyl-3-[2-(4-methyl-homopiperazin-1-ylmethyl)-pyridin-4-yloxy]-benzamide] | 99.4
13 | COc1c(NC(=O)c2ccc(C)c(Oc3ccnc(CC4CCNCC4)c3)c2)cc(C(C)(C)C)cc1NC(=O)C(C)C [5(47), N-(5-tert-butyl-3-isobutyrylamino-2-methoxy-phenyl)-4-methyl-3-(2-piperidin-4-ylmethyl-pyridin-4-yloxy)-benzamide] | 97.3
14 | COc1c(NC(=O)c2ccc(C)c(Oc3cc(N(C)C4CCN(C)CC4)ncn3)c2)cc(C(C)(C)C)cc1NS(C)(=O)=O [4(17), N-(5-tert-butyl-3-methanesulphonylamino-2-methoxy-phenyl)-4-methyl-3-{6-[methyl-(1-methyl-piperidin-4-yl)-amino]-pyrimidin-4-yloxy}-benzamide] | 98.7
15 | COc1c(NC(=O)c2ccc(C)c(Oc3cc(N4CC[C@H](N(C)C)C4)ncn3)c2)cc(C(C)(C)C)cc1NS(C)(=O)=O [4(13), N-(5-tert-butyl-3-methanesulphonylamino-2-methoxy-phenyl)-3-[6-((S)-3-dimethylamino-pyrrolidin-1-yl)-pyrimidin-4-yloxy]-4-methyl-benzamide] | 96.3
16 | COc1c(NC(=O)c2ccc(C)c(Oc3ccnc(CN(C)CCN(C)C)c3)c2)cc(C(C)(C)C)cc1NS(C)(=O)=O [8(26), N-(5-tert-butyl-3-methanesulphonylamino-2-methoxy-phenyl)-3-(2-{[(2-dimethylamino-ethyl)-methyl-amino]-methyl}-pyridin-4-yloxy)-4-methyl-benzamide] | 97.7
17 | COc1c(NC(=O)c2ccc(C)c(Oc3ccnc(CN4CC[C@@H](N(C)C)C4)n3)c2)cc(C(C)(C)C)cc1NS(C)(=O)=O [8(22), (R)-N-(5-tert-butyl-3-methanesulphonylamino-2-methoxy-phenyl)-3-[2-(3-dimethylamino-pyrrolidin-1-ylmethyl)-pyrimidin-4-yloxy]-4-methyl-benzamide] | 98.3
18 | COc1c(CS(C)(=O)=O)cc(C(C)(C)C)cc1NC(=O)c1ccc(C)c(Oc2ccnc(CC3CCNCC3)c2)c1 [5(41), N-(5-tert-butyl-3-methanesulphonylmethyl-2-methoxy-phenyl)-4-methyl-3-(2-piperidin-4-ylmethyl-pyridin-4-yloxy)-benzamide] | 99.6
19 | COc1c(NC(=O)c2ccc(Cl)c(Oc3cc(NC4CCN(C)CC4)ncn3)c2)cc(C(C)(C)C)cc1NS(C)(=O)=O [4(14), N-(5-tert-butyl-3-methanesulphonylamino-2-methoxy-phenyl)-4-chloro-3-[6-(1-methyl-piperidin-4-ylamino)-pyrimidin-4-yloxy]-benzamide] | 99.4

Second part, the compound after the results:

Row | inhibition at 1 µM [%] | SMILES
20 | 99.3 | COc1c(NC(=O)c2ccc(Cl)c(Oc3cc(CN4CCCNCC4)ncn3)c2)cc(C(C)(C)C)cc1NS(C)(=O)=O [5(36), N-(5-tert-butyl-3-methanesulphonylamino-2-methoxy-phenyl)-4-chloro-3-(6-[1,4]diazepan-1-ylmethyl-pyrimidin-4-yloxy)-benzamide]
21 | 88.9 | COc1c(NC(=O)c2cc(C)cc(Oc3ccnc(C(=O)N4CCNCC4)n3)c2)cc(C(C)(C)C)cc1NS(C)(=O)=O [5(21), N-(5-tert-butyl-3-methanesulphonylamino-2-methoxy-phenyl)-3-methyl-5-[2-(piperazine-1-carbonyl)-pyrimidin-4-yloxy]-benzamide x trifluoroacetic acid]
22 | 98.6 | COc1c(NC(=O)c2cc(Cl)c(C)c(Oc3ccnc(N4CCNCC4)n3)c2)cc(C(C)(C)C)cc1NS(C)(=O)=O [5(12), N-(5-tert-butyl-3-methanesulphonylamino-2-methoxy-phenyl)-3-chloro-4-methyl-5-(2-piperazin-1-yl-pyrimidin-4-yloxy)-benzamide]
23 | 99 | COc1c(NC(=O)c2ccc(Cl)c(Oc3ccnc(CC4CCNCC4)n3)c2)cc(C(C)(C)C)cc1NS(C)(=O)=O [5(30), N-(5-tert-butyl-3-methanesulphonylamino-2-methoxy-phenyl)-4-chloro-3-(2-piperidin-4-ylmethyl-pyrimidin-4-yloxy)-benzamide]
24 | 98.7 | COc1c(NC(=O)c2ccc(C)c(Oc3ccnc(CN4CCN(C)CC4)n3)c2)cc(C(C)(C)C)cc1NS(C)(=O)=O [8(6), N-(5-tert-butyl-3-methanesulphonylamino-2-methoxy-phenyl)-4-methyl-3-[2-(4-methyl-piperazin-1-ylmethyl)-pyrimidin-4-yloxy]-benzamide]
25 | 85.7 | COc1c(NC(=O)c2cc(C)cc(Oc3ccnc(CN4CCNCC4)n3)c2)cc(C(C)(C)C)cc1NS(C)(=O)=O [5(22), N-(5-tert-butyl-3-methanesulphonylamino-2-methoxy-phenyl)-3-methyl-5-(2-piperazin-1-ylmethyl-pyrimidin-4-yloxy)-benzamide]
26 | 93.2 | COc1c(NC(=O)c2ccc(C)c(Oc3cc(C(=O)N4CCNCC4)ncn3)c2)cc(C(C)(C)C)cc1NS(C)(=O)=O [5(2), N-(5-tert-butyl-3-methanesulphonylamino-2-methoxy-phenyl)-4-methyl-3-[6-(piperazine-1-carbonyl)-pyrimidin-4-yloxy]-benzamide x trifluoroacetic acid]
27 | 96.3 | COc1c(NC(=O)c2ccc(C)c(Oc3cc(N4CCNC(=O)C4)ncn3)c2)cc(C(C)(C)C)cc1NS(C)(=O)=O [4(3), N-(5-tert-butyl-3-methanesulphonylamino-2-methoxy-phenyl)-4-methyl-3-[6-(3-oxo-piperazin-1-yl)-pyrimidin-4-yloxy]-benzamide]
